From US20070167527A1, “MEMANTINE FOR THE NORMALIZATION OF VISUAL ACUITY DEFICITS” (priority 2006, published 2007)

Tests used:
retinal cells = assay: Histology (H&E) examination of eyes after transient IOP elevation; assay type: in vivo, rabbit; details: compared with the placebo group (patchy loss of predominantly outer retina cells)
Procedure: This invention is especially useful in the use of memantine to normalize visual acuity deficits from outer retina (photoreceptor/RPE) injury. […] Retinal cell degeneration was less in the memantine group compared with the placebo group. Rabbits were anesthetized with isofluorane, and prepared for unilateral acute retinal ischemia by raising IOP in the OD eye by 120 mm Hg for 45 minutes. To accomplish this, a reservoir with PBS was suspended 65 inches above the eye and connected to a 30 gauge needle inserted through the cornea into the anterior chamber. A drop of topical anesthetic (proparacaine) was placed upon the cornea prior to needle insertion.

rabbits = assay: Visual acuity by sweep visual evoked potential (swVEP) in conscious rabbits after transient IOP elevation; assay type: in vivo, rabbit; details: 4.5 months after transient IOP elevation; 2.5 kg rabbits pre-treated with oral dose of 50 mg memantine; compared with 50 mg sugar placebo (reduction in acuity)
Procedure: This invention is especially useful in the use of memantine to normalize visual acuity deficits from outer retina (photoreceptor/RPE) injury.
Rabbits were anesthetized with isofluorane, and prepared for unilateral acute retinal ischemia by raising IOP in the OD eye by 120 mm Hg for 45 minutes. To accomplish this, a reservoir with PBS was suspended 65 inches above the eye and connected to a 30 gauge needle inserted through the cornea into the anterior chamber. A drop of topical anesthetic (proparacaine) was placed upon the cornea prior to needle insertion.
swVEP is an electrophysiological technique for assessing visual acuity in young children who can't read the Snellen eye charts. Pattern reversal images of increasing spatial frequency are projected onto the macula while simultaneously recording electrical activity (VEP) from the scalp. Images with lower spatial frequency generate large signals which get smaller as the spatial frequency increases, until signal=noise; this threshold is the visual acuity. […]
Vertical steady-state pattern-reversal sweep stimulus at spatial frequency range of 0.1 to 5 cycles per degree at a temporal frequency of 7.5 Hz were applied to the eye at mean luminance of 600 cd/m2 and contrast of 80%. […] Trials were averaged and the threshold (visual acuity) was determined by software or manual fitting at signal-to-noise ration no less than 2.5. […]

CC12CC3CC(C)(C1)CC(N)(C3)C2 [memantine]
retinal cell degeneration (retinal cells): less | visual acuity (rabbits): normal visual acuities
